Patent US11786484B2, “Xanthohumol solubilizate” (Aquanova AG, priority 2018, dated 2023)

Tests used:
C-reactive protein (CRP) = assay: Adjuvant induced arthritis in rats: serum CRP; assay type: in vivo, Wistar rats; details: arthritic rats, 5 mg/kg orally once daily day 0 through day 21; diclofenac 3 mg/kg as reference
Procedure: (§1) Anti-inflammatory markers and antioxidant capacity were determined. Female Wistar rats with a body weight between 150 and 200 g were exposed to adjuvant induced arthritis according to Pearson et al. (1956). At day 0, the animals were administered 0.1 ml of Freund's Adjuvant (FCA) in the right hind paw, by subplantar injection. The animals were randomly divided into 12 groups of 8 animals each.
(§2) All extracts or solubilizates were administered orally once daily from day 0 through day 21 following the vaccination with the adjuvant. After day 21, the animals were killed and serum samples were prepared and stored at −80° C. Measurements were made of myeloperoxidase (MPO), C-reactive protein (CRP), total antioxidant capacity (TAC), and thiobarbituratic acid reactive substances (TBARS).

[1] = tested on: alpha-smooth muscle actin (α-SMA); assay: Hepatic expression of alpha-smooth muscle actin in WTD mice (qPCR, immunohistochemistry); assay type: in vivo, mice of the strain C57BL/6; details: 2.5 mg/kg daily, 8 weeks
Text: (§3) Male mice of the strain C57BL/6 at an age of 8 weeks either received usual diet or were fed according to the “Western type diet” consisting of 15% pork lard, 15% beef tallow, 4% palmitic acid, 4% stearic acid, 0.2% cholesterol, and 30% sucrose. The control group (CTRL), which received the usual diet, was given an aqueous solution of methylhydroxypropyl cellulose (MHPC, 0.2%, Methocel™ E4M prem) (“vehicle” VH) as a therapy, as was the case with the “Western type diet” group (“WTD”).
(§4) Other groups received the xanthohumol solubilizate (“s-XN”) of the present Applicant or native xanthohumol (“n-XN”) in addition to the WTD. The therapy was conducted over 8 weeks.
(§5) RNA isolation from liver tissue, reverse transcription and quantitative real-time polymerase chain reaction (PCR) analysis were carried out using the “LightCycler” technology (Roche) and specific tests for primers, as described in Hellebrand et al.: “Promoter hypermethylation is causing functional relevant downregulation of methylthioadenosine phosphorylase (MTAP) expression in hepatocellular carcinoma”, Carcinogenesis 2006; 27:64-72.
The α-SMA protein is an established marker of activated hepatic stellate cells (HSC) which trigger liver cirrhosis. An immunohistochemical analysis of the α-SMA protein confirmed that WTD causes significant activation of HSC (FIG. 4B).

myeloperoxidase (MPO) = assay: Adjuvant induced arthritis in rats: serum MPO; assay type: in vivo, Wistar rats; details: arthritic rats, 5 mg/kg orally once daily day 0 through day 21; diclofenac 3 mg/kg as reference
Procedure: as §1, §2

WTD fed mice [2] = assay: Intraperitoneal glucose tolerance test (ipGTT) in WTD mice; assay type: in vivo, mice of the strain C57BL/6; details: 2.5 mg/kg daily, after seven weeks
Procedure: (§6) The medical faculty of Friedrich-Alexander University Erlangen Nürnberg (FAU) conducted studies on the effects of xanthohumol on body weight. A dose of 2.5 mg/kg body weight of xanthohumol was administered daily. For this purpose, a solubilizate of the present Applicant was used. It was prepared from 100 g “Xantho-Flav Pure”, 150 g of 96% ethanol, and 750 g of polysorbate 80. For adjusting the concentration to 0.375 mg/ml, the solubilizate was diluted with double-distilled water (“ddH2O”). The corresponding data are marked by “s-XN” in the accompanying figures.
(§7) For comparison, similar experiments were conducted with the same dose of native xanthohumol. For dissolving the native xanthohumol, an aqueous solution of methylhydroxypropyl cellulose (MHPC, 0.2%, Methocel E4M Premium CR, Hypromellose 2910 USP, Fragron Inc., Minnesota, USA) was used. The corresponding data are marked by “n-XN”. […]
After seven weeks of administration of the solubilizate or of native xanthohumol, an intraperitoneal glucose tolerance test (ipGTT) was carried out. […] The concentration of glucose in the blood was measured in samples that were taken from the tail vein prior to glucose administration (fasting glucose) as well as 30, 60, 80, and 120 minutes thereafter. […]

type 1 collagen (COL1A1) = assay: Hepatic expression of type 1 collagen in WTD mice; assay type: in vivo, mice of the strain C57BL/6; details: 2.5 mg/kg daily, 8 weeks
Text: as §3, §4, §5
Type 1 collagen (COL1A1) is the most important extracellular matrix protein in liver fibrosis, both quantitatively and qualitatively.

[3] = tested on: thiobarbituric acid reactive substances TBARS; assay: Adjuvant induced arthritis in rats: TBARS in serum; assay type: in vivo, Wistar rats; details: serum of arthritic rats (n=8), once daily for 21 days, mean ± SEM
Procedure: as §1, §2
(§8) Oxidative stress is one of the major factors contributing to joint destruction in rheumatoid arthritis (RA). An increase in the production of reactive oxygen species (ROS) leads to a reduced supply of endogenous antioxidants and ultimately results in the destruction of cells. The neutrophil granulocytes released in the rheumatoid joint produce free oxygen radicals which cause increased formation of lipid peroxides manifesting in an increase in serum TBARS. […]

[4] = tested on: total antioxidant capacity (TAC); assay: Adjuvant induced arthritis in rats: total antioxidant capacity (TAC) in serum; assay type: in vivo, Wistar rats; details: serum of arthritic rats (n=8), once daily for 21 days, mean ± SEM
Procedure: as §1, §2, §8

WTD fed mice [5] = assay: Liver weight, hepatic triglyceride level and histology (steatosis) in WTD mice; assay type: in vivo, mice of the strain C57BL/6; details: 2.5 mg/kg daily, 8 weeks
Procedure: as §6, §7
To quantify liver lipids, the latter were extracted and the amount of triglycerides (“hepatic triglyceride level”) was determined using a “GPO-triglyceride kit” (Sigma, Deisenhofen, Germany), as described in Wobser et al.: “Lipid accumulation in hepatocytes induces fibrogenic activation of hepatic stellate cells”, Cell Res 2009; 19:996-1005. […]

SMILES	effect on CRP serum level, in words (C-reactive protein (CRP))	WTD-induced expression of α-SMA [1]	effect on the serum concentration of MPO, in words (myeloperoxidase (MPO))	fasting glucose values (WTD fed mice [2]; 12 hours of fasting)	glucose tolerance (WTD fed mice [2]; ipGTT 3 mg glucose per gram body weight)	WTD-induced expression of type 1 collagen (type 1 collagen (COL1A1))	TBARS [3] [nmol/L]	TAC [4] [nmol/µL]	steatosis (liver appearance, histological examinations) (WTD fed mice [5])
COc1cc(O)c(CC=C(C)C)c(O)c1C(=O)/C=C/c1ccc(O)cc1 [native xanthohumol, xanthohumol]	effect comparable to that of diclofenac	hardly any effects	only a slight effect	did not bring about this effect	did not bring about this effect	hardly any effects	11.42 ± 1.16	63.71 ± 1.02	accumulation of fat in the liver (steatosis)
O=C(O)Cc1ccccc1Nc1c(Cl)cccc1Cl [Diclofenac, diclofenac]	–	–	–	–	–	–	7.93 ± 0.84	82.08 ± 2.96	–
